This note sets out measurements from US20010053333A1, “Antimicrobial flash-dry disinfectant aerosol” (priority 2000, published 2001).

A short description of this series: Evaporation time for various aerosol sterilizer. The format is physicochemical. The text has this:
Evaporation Time for Various Aerosol Sterilizer

For the compound `O` [H2O], the “Evaporation Time: state” value by setting is: (1 minute) “wet”; (2 minutes) “wet”; (5 minutes) “humid”; (15 minutes) “droplets”; (30 minutes) “droplets”; (40 minutes) “droplets”. In addition, the “Evaporation Time: state” value (45 minutes) is reported as “dry”.
